Experimental data as given in publication PMC6277434, “Discovery of a potent HMG-CoA reductase degrader that eliminates statin-induced reductase accumulation and lowers cholesterol” (Nature Communications, 2018).
Several values for one entry are separate records, joined by “and”; a condition that tells them apart may be missing. Identical values can stand only once. Like-named read-outs stand apart in the source and are kept apart here. One block for each molecule: values may come before it.

Key:
LXR signaling pathway [1] = test: RT-qPCR of LXR target genes (SREBP-1c, ABCA1, ABCG8) in Huh-7 cells; assay type: cell-based, human; settings: 16 h
Method: Cells were treated as described in corresponding figure legends, then total RNA was extracted from cells or mouse livers using TRI Reagent (T9424, Sigma-Aldrich). Equal amounts of RNA from cells or mice receiving the same treatment were pooled were used for cDNA synthesis with oligo dT and reverse transcriptase MLV (Promega). Gene expression was analyzed by quantitative real-time PCR on a Stratagene Mx30005PTM Q-PCR Systems. The primers used were listed in Supplementary Tables 2–4. […]
pathway. a-c Huh-7 cells were treated with indicated compounds for 16 h and then harvested for total RNA isolation and RT-qPCR. Cells treated with LXR agonist T0901317 w ere used as positive controls. The relative mRNA levels of SREBP -1c (a), ABCA1 (b) and ABCG8 (c) were quantified . GAPDH was the reference gene. The relative mRNA level in DMSO-treated cells was defined as 1. Data are from 3 independent experiments and presented as mean ± SD.
(1 picture or pasted object on this page, not shown here)

LXR signaling pathway [2] = tested on: LXR signaling pathway; parameters: method as in earlier work; settings: previous studies ref 2 (Yang, C. et al. J. Biol. Chem. 281, 27816-27826 (2006)); cited from earlier work
HMGCR = target: T1, HMGCR (Cricetulus griseus, UniProt P00347); test: Immunoblotting of endogenous HMGCR protein in CHO-7 (or CHG) cells; assay type: cell-based, Chinese hamster; settings: for increase of HMGCR protein (maximum increment): CHO-7 cells, statin 16 h, DMSO = 1; for endogenous HMGCR protein level (immunoblot), mean: CHG cells, 16 h, DMSO = 100
T1 construct: endogenous in cells; host or cells: CHO-7, CHG, SRD-13A, SRD-15
T1 sequence (P00347 1-887): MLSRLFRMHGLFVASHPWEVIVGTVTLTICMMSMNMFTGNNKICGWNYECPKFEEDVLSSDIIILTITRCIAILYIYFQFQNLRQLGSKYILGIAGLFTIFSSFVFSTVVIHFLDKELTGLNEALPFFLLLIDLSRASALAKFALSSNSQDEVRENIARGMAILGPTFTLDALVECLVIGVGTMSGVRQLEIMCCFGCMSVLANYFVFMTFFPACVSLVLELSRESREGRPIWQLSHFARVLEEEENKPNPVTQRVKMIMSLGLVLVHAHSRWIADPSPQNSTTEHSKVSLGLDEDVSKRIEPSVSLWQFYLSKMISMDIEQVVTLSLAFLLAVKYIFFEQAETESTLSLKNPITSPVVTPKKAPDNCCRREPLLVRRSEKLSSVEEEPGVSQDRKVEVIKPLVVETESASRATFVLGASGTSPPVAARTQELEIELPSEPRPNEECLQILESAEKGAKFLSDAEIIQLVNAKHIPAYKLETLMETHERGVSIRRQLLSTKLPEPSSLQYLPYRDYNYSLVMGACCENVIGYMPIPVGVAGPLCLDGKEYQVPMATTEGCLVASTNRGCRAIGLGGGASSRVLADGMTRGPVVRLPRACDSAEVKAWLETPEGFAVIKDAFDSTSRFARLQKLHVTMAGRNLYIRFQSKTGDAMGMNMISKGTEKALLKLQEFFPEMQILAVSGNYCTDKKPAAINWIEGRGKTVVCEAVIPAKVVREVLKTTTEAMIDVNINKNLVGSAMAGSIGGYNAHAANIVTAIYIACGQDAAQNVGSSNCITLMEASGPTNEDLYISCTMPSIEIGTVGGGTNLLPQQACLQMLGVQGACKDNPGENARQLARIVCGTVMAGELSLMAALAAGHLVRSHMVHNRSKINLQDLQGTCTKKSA
Method: CHO-7 (Chinese hamster ovary cell, a clone of CHO-K1 cell line selected for growth in LPDS) and Huh7 (a human hepatocellular carcinoma cell line), SRD-13A (a Scap-deficient CHO-7 cell line) and SRD-15 (an Insig-1 and Insig-2-deficient CHO-7 cell line) were generous gifts from Russell Debose-Boyd at UT Southwestern Medical Center, USA. All cells were grown in a monolayer at 37 °C with 5% CO2. Huh7 cells were maintained in medium A supplemented with 10% FBS. CHO-7 and SRD-15 cells were maintained in medium B supplemented with 5% FBS. SRD-13A cells were maintained in medium B with 5% FBS, 5 μg ml^−1 cholesterol, 1 mM sodium mevalonate, 10 μM sodium oleate. No cell lines used in this study were found in the database of commonly misidentified cell lines that is maintained by ICLAC and NCBI Biosample. The cell lines have not been authenticated recently. No test for mycoplasma contamination was performed.
(§1) Cells were harvested and homogenized in the RIPA buffer (50 mM Tris-HCl, pH 8.0, 150 mM NaCl, 2 mM MgCl2, 1.5% NP-40, 0.1% SDS, and 0.5% sodium deoxycholate) supplemented with protease cocktail inhibitor, 10 μM MG-132, 10 μg ml^−1 leupeptin and 1 mM phenylmethylsulfonyl fluoride. The protein concentrations of lysates were determined using BCA method (Beyotime). Samples were mixed with the membrane protein solubilization buffer (62.5 mM Tris-HCl, pH 6.8, 15% SDS, 8 M urea, 10% glycerol, and 100 mM DTT) plus the 4× loading buffer (150 mM Tris-HCl, pH 6.8, 12% SDS, 30% glycerol, 6% 2-mercaptoethanol, and 0.02% bromophenol blue) and incubated for 30 min at 37 °C. Proteins were resolved by SDS-PAGE and transferred to nitrocellulose membranes (GE Healthcare). Immnoblots were blocked with 5% non-fat milk in TBS containing 0.075% Tween-20 (TBST) and probed with indicated antibodies overnight at 4 °C. After washing in TBST for five times, blots were incubated with HRP-conjugated secondary antibodies for 2 h at room temperature. Immunoreactivity was developed with Clarity Western ECL chemiluminescent substrates (170–5061, Bio-Rad). Western blot images were captured by Amersham Imager 600 (GE Healthcare), and integrated optical intensities of each band were quantified by Image-Pro Plus 6 software (Media Cybernetics). Uncropped blots are shown in Supplementary Figs. 9–13.

Hmgcr mRNA = test: RT-qPCR of Hmgcr mRNA in CHO-7 cells; assay type: cell-based, Chinese hamster; settings: CHO-7 cells, statin 16 h (lovastatin up to 10 μM), DMSO = 1
Method: Cells were treated as described in corresponding figure legends, then total RNA was extracted from cells or mouse livers using TRI Reagent (T9424, Sigma-Aldrich). Equal amounts of RNA from cells or mice receiving the same treatment were pooled were used for cDNA synthesis with oligo dT and reverse transcriptase MLV (Promega). Gene expression was analyzed by quantitative real-time PCR on a Stratagene Mx30005PTM Q-PCR Systems. The primers used were listed in Supplementary Tables 2–4.

HMGCR (TM1-8)-GFP [3] = target: T2, HMGCR (TM1-8)-GFP (Cricetulus griseus, UniProt P00347)
T2 sequence (P00347 1-346): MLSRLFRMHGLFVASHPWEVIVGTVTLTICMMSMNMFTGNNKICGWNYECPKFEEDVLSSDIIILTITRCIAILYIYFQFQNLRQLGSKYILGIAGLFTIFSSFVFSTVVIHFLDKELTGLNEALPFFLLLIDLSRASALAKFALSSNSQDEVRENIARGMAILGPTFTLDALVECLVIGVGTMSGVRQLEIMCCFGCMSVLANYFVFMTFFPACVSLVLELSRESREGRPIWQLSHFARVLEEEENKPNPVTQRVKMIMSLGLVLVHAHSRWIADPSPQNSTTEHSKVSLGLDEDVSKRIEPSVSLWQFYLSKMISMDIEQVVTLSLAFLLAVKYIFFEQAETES
Method: (§2) We thus generated a cell line stably expressing the transmembrane domain of HMGCR fused with green fluorescent protein (GFP) as a reporter (HMGCR (TM1-8)-GFP) (Fig. 2a).
(§3) CHO-7 cells were transfected with pCMV-HMGCR (TM1-8)-GFP using FuGENE HD. Twenty-four hours, cells were switched to medium B supplemented with 5% FBS and selected in the presence of 1 mg ml^−1 G418 for 2 weeks. Surviving colonies were isolated and confirmed for GFP expression by immunoblotting and immunofluorescence. The resulting CHO-7/HMGCR (TM1-8)-GFP stable cell line (CHG) was maintained in medium B supplemented with 5% FBS and 200 μg ml^−1 G418.
(§4) CHG cells were treated as described in figure legends. Briefly, cells were seeded at day 0 in 96-well black plate (3904, Corning) at a density of 1.5 × 10^4 cells per well, in medium B containing with 5% LPDS. Day 1, corresponding compounds were added as figure legends described in medium B with 5% LPDS, 1 μM lovastatin, 50 μM sodium mevalonate for 16 h. Then cells were fixed with 4% paraformaldehyde for 20 min, washed with PBS for three times, and stained with 2 μg ml^−1 Hoechst 33342.
(§5) The fluorescent images (GFP and Hoechst channel) were captured using an Operatta High-Content Imaging System (PerkinElmer) with a ×20 objective. The cytoplasmic GFP fluorescence was measured with the Harmony Software (PerkinElmer). Five random selected filed per well were captured, and about 3000 cells were used to determine the mean cytoplasmic GFP fluorescent intensity per cell after subtracting background GFP intensity. The average GFP intensity of DMSO-treated cells was defined as 100.

HMGCR (TM1-8)-GFP [4] = target: T2, HMGCR (TM1-8)-GFP; test: Immunoblotting of overexpressed HMGCR (TM1-8)-GFP in CHG cells; assay type: cell-based, hamster; parameters: corresponding to the amino acids from 1 to 346 of hamster HMGCR; expressed in transfected cells; settings: 16 h, DMSO = 100
Method: Fig. 2 A reporting system that measures HMGCR degradation. a Schematic of the HMGCR (TM1-8)-GFP fusion protein. […] Data are from three independent experiments and presented as mean ± SD. Source data are provided as a Source Data File.
as §1

HMGCR (TM1-8)-GFP [5] = target: T2, HMGCR (TM1-8)-GFP; test: HMGCR (TM1-8)-GFP fluorescent assay (high-content imaging) in CHG cells
Method: as §2, §3, §4, §5

[6] = 16 h, read-out: HMGCR (TM1-8)-GFP fluorescent intensity, mean
[7] = read-out: Mean (HMGCR (TM1-8)-GFP signal relative to 0 μM = 100)

increase of HMGCR protein (maximum increment) (HMGCR): ~12 fold
Compound: CC[C@H](C)C(=O)O[C@H]1C[C@H](O)C=C2C=C[C@H](C)[C@H](CC[C@@H](O)C[C@@H](O)CC(=O)O)[C@H]21 [pravastatin]
increase of Hmgcr mRNA abundance (Hmgcr mRNA): 2.4 fold

endogenous HMGCR protein level (immunoblot), mean (HMGCR; 1 uM): 100.862
endogenous HMGCR protein level (immunoblot), mean (HMGCR; 3 uM): 95.8793
endogenous HMGCR protein level (immunoblot), mean (HMGCR; 10 uM): 57.8709
DC50 (HMGCR (TM1-8)-GFP [3]): ~30.4 µM and 30.4 µM
overexpressed HMGCR (TM1-8)-GFP protein level (anti-GFP immunoblot), mean (HMGCR (TM1-8)-GFP [4]; 1 uM): 93.1421
overexpressed HMGCR (TM1-8)-GFP protein level (anti-GFP immunoblot), mean (HMGCR (TM1-8)-GFP [4]; 3 uM): 90.7374
overexpressed HMGCR (TM1-8)-GFP protein level (anti-GFP immunoblot), mean (HMGCR (TM1-8)-GFP [4]; 10 uM): 74.0079
remaining activity at 0.001 µM (HMGCR (TM1-8)-GFP [5]; [6]): 100%
remaining activity at 0.01 µM (HMGCR (TM1-8)-GFP [5]; [6]): 100%
remaining activity at 0.1 µM (HMGCR (TM1-8)-GFP [5]; [6]): 95.9%
remaining activity at 0.3 µM (HMGCR (TM1-8)-GFP [5]; [6]): 88.9%
remaining activity at 1 µM (HMGCR (TM1-8)-GFP [5]; [6]): 77.2%
remaining activity at 3 µM (HMGCR (TM1-8)-GFP [5]; [6]): 66.6%
remaining activity at 10 µM (HMGCR (TM1-8)-GFP [5]; [6]): 65.5%
remaining activity at 20 µM (HMGCR (TM1-8)-GFP [5]; [6]): 58.9%
remaining activity at 30 µM (HMGCR (TM1-8)-GFP [5]; [6]): 47%
Compound: CC(C)CCC[C@@H](C)[C@H]1CC[C@H]2[C@@H]3CC=C4C[C@@H](O)CC[C@]4(C)[C@H]3CC[C@]12C [Cholesterol]

increase of HMGCR protein (maximum increment) (HMGCR): ~9 fold
Compound: CC(C)c1c(C(=O)Nc2ccccc2)c(-c2ccccc2)c(-c2ccc(F)cc2)n1CC[C@@H](O)C[C@@H](O)CC(=O)O [atorvastatin]
increase of Hmgcr mRNA abundance (Hmgcr mRNA): 1.8 fold

Second part, the molecule before the results:

Compound: CC(C)=CCC[C@@H](C)[C@H]1CC[C@@]2(C)C3=C(CC[C@]12C)[C@@]1(C)CC[C@H](O)C(C)(C)[C@@H]1CC3 [lanosterol]
expression of LXR target genes (SREBP-1c, ABCA1 and ABCG8) mRNA (LXR signaling pathway [1]): did not activate the LXR target genes
activation of LXR (LXR signaling pathway [2]): no effect

Compound: CCC(C)(C)C(=O)O[C@H]1C[C@@H](C)C=C2C=C[C@H](C)[C@H](CC[C@@H]3C[C@@H](O)CC(=O)O3)[C@H]21 [simvastatin]
increase of HMGCR protein (maximum increment) (HMGCR): ~ 15 fold
increase of Hmgcr mRNA abundance (Hmgcr mRNA): 3.5 fold

Compound: CC(C)c1nc(N(C)S(C)(=O)=O)nc(-c2ccc(F)cc2)c1/C=C/[C@@H](O)C[C@@H](O)CC(=O)O [rosuvastatin]
increase of HMGCR protein (maximum increment) (HMGCR): ~17 fold
increase of Hmgcr mRNA abundance (Hmgcr mRNA): 2.3 fold

Compound: CC(C)n1c(/C=C/C(O)CC(O)CC(=O)O)c(-c2ccc(F)cc2)c2ccccc21 (centres unmarked) [fluvastatin]
increase of HMGCR protein (maximum increment) (HMGCR): ~11 fold
increase of Hmgcr mRNA abundance (Hmgcr mRNA): 2.6 fold

Compound: C=CCC(O)(CC=C)CCCC[C@@H](C)C1CCC2C3C(CC[C@@]21C)[C@@]1(C)CC[C@H](O)C(C)(C)C1=C[C@@H]3O (some centres unmarked) [Compound 102]
DC50 (HMGCR (TM1-8)-GFP [3]): 1.92 µM
remaining activity at 0.156 µM (HMGCR (TM1-8)-GFP [5]; [7]): 108%
remaining activity at 0.313 µM (HMGCR (TM1-8)-GFP [5]; [7]): 104%
remaining activity at 0.625 µM (HMGCR (TM1-8)-GFP [5]; [7]): 86.9%
remaining activity at 1.25 µM (HMGCR (TM1-8)-GFP [5]; [7]): 56.5%
remaining activity at 2.5 µM (HMGCR (TM1-8)-GFP [5]; [7]): 37.2%
remaining activity at 5 µM (HMGCR (TM1-8)-GFP [5]; [7]): 31.7%
remaining activity at 10 µM (HMGCR (TM1-8)-GFP [5]; [7]): 31.8%

Compound: CCC(O)CC[C@@H](C)C1CCC2C3C(CC[C@@]21C)[C@@]1(C)CC[C@H](O)C(C)(C)C1=C[C@@H]3O (some centres unmarked) [Compound 64]
DC50 (HMGCR (TM1-8)-GFP [3]): 3.06 µM
remaining activity at 0.156 µM (HMGCR (TM1-8)-GFP [5]; [7]): 100%
remaining activity at 0.313 µM (HMGCR (TM1-8)-GFP [5]; [7]): 104%
remaining activity at 0.625 µM (HMGCR (TM1-8)-GFP [5]; [7]): 88.2%
remaining activity at 1.25 µM (HMGCR (TM1-8)-GFP [5]; [7]): 68.2%
remaining activity at 2.5 µM (HMGCR (TM1-8)-GFP [5]; [7]): 52.2%
remaining activity at 5 µM (HMGCR (TM1-8)-GFP [5]; [7]): 35.6%
remaining activity at 10 µM (HMGCR (TM1-8)-GFP [5]; [7]): 27%
